The record followed here is patent US10172868B2, “Substituted quinazolines for inhibiting kinase activity” (NeuPharma, Inc., priority 2013, dated 2019).

The target of one test is EGFR (ErbB1) T790M L858R (Homo sapiens (Human), UniProt P00533, L858R/T790M). The experiment in a line: Z'-LYTE kinase inhibition assay, EGFR L858R/T790M. Particulars: for inhibition at 1 µM: read-out: % inhibition against EGFR L858R/T790M (Compound at 1 μM); for IC50: read-out: IC50 against EGFR L858R/T790M; for inhibition at 0.0137 µM: read-out: % inhibition against EGFR L858R/T790M (Compound at 0.0137 μM). It is filed as biochemical. The gist of the method:
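IC50 taken from 10-point, 3-fold serial dilutions tested in 1% DMSO. The mutant kinase and peptide were prepared in HEPES pH 6.5 buffer with BRIJ-35, MgCl2, EGTA and NaN3, then reacted with ATP for 1 h at room temperature. Development reagent was added for a further hour before the fluorescence readout.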

Another test has as its target BTK (Homo sapiens (Human), UniProt Q06187). Nature of the test: Z'-LYTE kinase inhibition assay, BTK. It is filed as biochemical. Particulars: for inhibition at 0.041 µM: compound at 0.041 μM, read-out: % inhibition against BTK; for IC50: read-out: IC50 against BTK. The gist of the method: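 Z'-LYTE FRET assay with Tyr 01 peptide in 50 mM HEPES pH 7.5, 10 mM MgCl2, 1 mM EGTA, 0.01% BRIJ-35. Compounds in 1% DMSO were tested as 10-point, 3-fold titrations.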

In another test the target is JAK2 (Homo sapiens (Human), UniProt O60674). The experiment in a line: Z'-LYTE kinase inhibition assay, JAK2. It is filed as biochemical. To be noted: compound at 0.041 μM; read-out: % inhibition against JAK2. How it is done:
(§1) Inhibitory activities of compounds against BTK, EGFR and EGFR mutants (EGFR L858R, EGFR T790M, EGFR L858R/T790M), FGFR1, FGFR2, JAK2, JAK3 and KDR were measured by Invitrogen using Z'-LYTE® Method as briefly described in the following.
(§2) Test Compounds are screened in 1% DMSO (final) in the well. For 10 point titrations, 3-fold serial dilutions are conducted from the starting concentration. All ATP Solutions are diluted to a 4× working concentration in Kinase Buffer (50 mM HEPES pH 7.5, 0.01% BRIJ-35, 10 mM MgCl2, 1 mM EGTA). Peptide/Kinase Mixtures are diluted to a 2× working concentration in the appropriate Kinase Buffers as described below.
(v) Peptide/Kinase Mixtures for Measurement of JAK2:
The 2×JAK2/Tyr 06 mixture is prepared in 50 mM HEPES pH 7.5, 0.01% BRIJ-35, 10 mM MgCl2, 1 mM EGTA. The final 10 μL Kinase Reaction consists of 0.06-0.81 ng JAK2 and 2 μM Tyr 06 in 50 mM HEPES pH 7.5, 0.01% BRIJ-35, 10 mM MgCl2, 1 mM EGTA. After the 1 hour Kinase Reaction incubation, 5 μL of a 1:64 dilution of Development Reagent A is added.
(§3) Reaction starts by 30-second shaking of mixture consisting of 2.5 μL 4× test compound, […] 2× kinase reaction mixture and 2.5 μL 4×ATP Solution on Bar-coded Corning, low volume NBS, black 384-well plate (Corning Cat. #3676). Then the mixture is incubated for 60-minute at room temperature for the kinase reaction, followed by addition of 5 μL of a 1:1024 dilution of development reagent A and 30-second plate shake. The mixture is then incubated for another 60-minute at room temperature for development reaction. Finally fluorescence is read by plate reader.

The target of a further test is FGFR1 (Homo sapiens (Human), UniProt P11362). The experiment in a line: Z'-LYTE kinase inhibition assay, FGFR1. It is filed as biochemical. Particulars: compound at 0.041 μM; read-out: % inhibition against FGFR1. How it is done: as §1, §2
Chain of FGFR1 (P11362 22-822): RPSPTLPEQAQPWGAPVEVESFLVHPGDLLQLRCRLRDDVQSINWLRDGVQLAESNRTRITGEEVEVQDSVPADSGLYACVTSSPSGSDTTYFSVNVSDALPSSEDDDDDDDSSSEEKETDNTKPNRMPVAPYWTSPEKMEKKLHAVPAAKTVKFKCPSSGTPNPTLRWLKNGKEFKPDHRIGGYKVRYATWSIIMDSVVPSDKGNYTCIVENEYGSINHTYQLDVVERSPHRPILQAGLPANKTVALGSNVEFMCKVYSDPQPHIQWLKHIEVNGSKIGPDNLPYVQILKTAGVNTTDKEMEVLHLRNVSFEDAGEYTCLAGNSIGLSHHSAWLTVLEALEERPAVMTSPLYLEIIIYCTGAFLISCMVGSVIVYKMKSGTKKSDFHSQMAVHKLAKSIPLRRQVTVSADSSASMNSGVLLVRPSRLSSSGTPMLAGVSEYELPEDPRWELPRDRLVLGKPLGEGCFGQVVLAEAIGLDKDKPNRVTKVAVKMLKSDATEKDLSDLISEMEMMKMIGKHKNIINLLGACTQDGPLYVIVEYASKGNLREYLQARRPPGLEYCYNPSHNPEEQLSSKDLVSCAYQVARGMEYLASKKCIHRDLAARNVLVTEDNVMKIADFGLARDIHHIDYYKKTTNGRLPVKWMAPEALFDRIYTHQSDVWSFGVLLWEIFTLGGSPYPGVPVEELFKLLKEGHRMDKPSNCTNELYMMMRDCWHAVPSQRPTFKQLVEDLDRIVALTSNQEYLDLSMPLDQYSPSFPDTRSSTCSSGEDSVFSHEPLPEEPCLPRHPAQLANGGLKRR
(v) Peptide/Kinase Mixtures for Measurement of FGFR1:
The 2×FGFR1/Tyr 04 mixture is prepared in 50 mM HEPES pH 7.5, 0.01% BRIJ-35, 10 mM MgCl2, 4 mM MnCl2, 1 mM EGTA, 2 mM DTT. The final 10 μL Kinase Reaction consists of 0.41-3.5 ng FGFR1 and 2 μM Tyr 04 in 50 mM HEPES pH 7.5, 0.01% BRIJ-35, 10 mM MgCl2, 2 mM MnCl2, 1 mM EGTA, 1 mM DTT. After the 1 hour Kinase Reaction incubation, 5 μL of a 1:64 dilution of Development Reagent B is added.
as §3
To determine IC50 of a compound against EGFR, EGFR mutant and other kinases, a series of concentrations of the compound were tested for the inhibition. […] The scale utilized in Table 4 is as follows: +++ less than 100 nM, ++ 100-500 nM and + greater than 500 nM.

Another test concerns HCC827 cells. Nature of the test: cells. To be noted: Homo sapiens, HCC827, 72 h, read-out: IC50 in HCC827 cells.
A further test deals with H1975 cells. The experiment in a line: Inhibition of cancer cell growth, MTT assay, H1975. Particulars: Homo sapiens, NCI-H1975, 72 h, read-out: IC50 in H1975 cells. Background: Formazan colour is commonly taken as a measure of viable cells.
A further test addresses EGFR (ErbB1) (Homo sapiens (Human), UniProt P00533). Nature of the test: Z'-LYTE kinase inhibition assay, EGFR. To be noted: for inhibition at 1 µM: read-out: % inhibition against EGFR (Compound at 1 μM); for inhibition at 0.041 µM: read-out: % inhibition against EGFR (Compound at 0.041 μM); for IC50: read-out: IC50 against EGFR. Type of test: biochemical. The gist of the method: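 IC50 values derived from 10-point, 3-fold compound dilution series (1% DMSO final) using Z'-LYTE fluorescence readout after 60-min development. Reaction: EGFR (1.1-5.25 ng) with 2 μM peptide, 60 min at room temperature in HEPES pH 7.5 buffer containing MgCl2, MnCl2, EGTA, DTT and BRIJ-35.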

In another test the test system is A431 cells. Nature of the test: cells. To be noted: Homo sapiens, A-431, 72 h, read-out: IC50 in A431 cells.
The next test concerns H1299 cells. The experiment in a line: Inhibition of cancer cell growth, MTT assay, H1299. To be noted: Homo sapiens, NCI-H1299, 72 h, read-out: IC50 in H1299 cells.
A further test concerns H3255 cells. Nature of the test: Inhibition of cancer cell growth, MTT assay, H3255. To be noted: Homo sapiens, NCI-H3255, 72 h, read-out: IC50 in H3255 cells.

Bounds are passed on as bounds.

Chain of BTK (Q06187 whole entry): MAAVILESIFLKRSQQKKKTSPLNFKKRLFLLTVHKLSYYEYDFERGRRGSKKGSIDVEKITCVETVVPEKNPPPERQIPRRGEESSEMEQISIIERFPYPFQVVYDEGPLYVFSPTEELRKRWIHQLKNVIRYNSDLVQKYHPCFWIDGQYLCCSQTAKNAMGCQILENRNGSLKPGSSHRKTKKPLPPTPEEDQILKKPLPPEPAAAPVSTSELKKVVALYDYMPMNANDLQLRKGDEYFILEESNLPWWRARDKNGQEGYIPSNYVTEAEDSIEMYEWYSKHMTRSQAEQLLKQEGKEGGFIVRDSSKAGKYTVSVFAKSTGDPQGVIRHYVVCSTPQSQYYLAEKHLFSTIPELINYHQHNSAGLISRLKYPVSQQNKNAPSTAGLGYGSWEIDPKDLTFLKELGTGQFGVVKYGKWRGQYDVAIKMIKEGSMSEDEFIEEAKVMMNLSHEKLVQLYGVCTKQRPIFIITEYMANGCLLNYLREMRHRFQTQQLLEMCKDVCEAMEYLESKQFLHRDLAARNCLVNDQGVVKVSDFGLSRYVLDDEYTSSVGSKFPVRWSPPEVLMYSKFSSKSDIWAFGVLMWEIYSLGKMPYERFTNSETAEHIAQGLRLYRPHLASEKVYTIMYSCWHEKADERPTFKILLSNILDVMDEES
Chain of EGFR (ErbB1) (P00533 25-1210): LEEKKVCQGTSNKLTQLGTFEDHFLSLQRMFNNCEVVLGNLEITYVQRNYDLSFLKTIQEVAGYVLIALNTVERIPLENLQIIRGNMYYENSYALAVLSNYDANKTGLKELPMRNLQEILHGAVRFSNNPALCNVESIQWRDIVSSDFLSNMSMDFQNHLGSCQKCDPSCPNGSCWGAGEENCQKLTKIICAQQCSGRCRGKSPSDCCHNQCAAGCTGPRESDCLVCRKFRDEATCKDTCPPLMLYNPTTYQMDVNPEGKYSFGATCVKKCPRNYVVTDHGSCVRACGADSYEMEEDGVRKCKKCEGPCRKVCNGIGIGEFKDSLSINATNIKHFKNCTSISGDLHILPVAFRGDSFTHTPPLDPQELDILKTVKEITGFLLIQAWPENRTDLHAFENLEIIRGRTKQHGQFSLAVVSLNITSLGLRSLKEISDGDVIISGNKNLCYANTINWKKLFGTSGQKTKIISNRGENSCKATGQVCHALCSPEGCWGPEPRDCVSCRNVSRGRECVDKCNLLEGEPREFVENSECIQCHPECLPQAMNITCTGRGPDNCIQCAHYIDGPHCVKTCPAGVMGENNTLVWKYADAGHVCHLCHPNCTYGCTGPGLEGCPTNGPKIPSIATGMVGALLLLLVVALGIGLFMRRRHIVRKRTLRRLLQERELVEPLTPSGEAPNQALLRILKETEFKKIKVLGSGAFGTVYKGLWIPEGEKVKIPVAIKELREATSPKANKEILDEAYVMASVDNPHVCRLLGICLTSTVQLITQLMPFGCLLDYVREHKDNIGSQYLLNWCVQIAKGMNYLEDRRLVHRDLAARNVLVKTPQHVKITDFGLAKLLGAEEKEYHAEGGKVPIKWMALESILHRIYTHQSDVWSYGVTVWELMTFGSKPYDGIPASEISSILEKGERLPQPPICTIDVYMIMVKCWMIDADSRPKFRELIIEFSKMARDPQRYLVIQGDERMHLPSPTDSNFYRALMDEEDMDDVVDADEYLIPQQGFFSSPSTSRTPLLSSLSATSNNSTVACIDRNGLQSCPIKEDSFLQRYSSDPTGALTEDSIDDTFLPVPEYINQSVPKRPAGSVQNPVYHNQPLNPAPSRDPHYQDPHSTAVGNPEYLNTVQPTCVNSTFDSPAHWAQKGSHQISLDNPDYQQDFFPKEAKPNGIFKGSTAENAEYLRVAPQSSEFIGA
Chain of JAK2 (O60674 whole entry): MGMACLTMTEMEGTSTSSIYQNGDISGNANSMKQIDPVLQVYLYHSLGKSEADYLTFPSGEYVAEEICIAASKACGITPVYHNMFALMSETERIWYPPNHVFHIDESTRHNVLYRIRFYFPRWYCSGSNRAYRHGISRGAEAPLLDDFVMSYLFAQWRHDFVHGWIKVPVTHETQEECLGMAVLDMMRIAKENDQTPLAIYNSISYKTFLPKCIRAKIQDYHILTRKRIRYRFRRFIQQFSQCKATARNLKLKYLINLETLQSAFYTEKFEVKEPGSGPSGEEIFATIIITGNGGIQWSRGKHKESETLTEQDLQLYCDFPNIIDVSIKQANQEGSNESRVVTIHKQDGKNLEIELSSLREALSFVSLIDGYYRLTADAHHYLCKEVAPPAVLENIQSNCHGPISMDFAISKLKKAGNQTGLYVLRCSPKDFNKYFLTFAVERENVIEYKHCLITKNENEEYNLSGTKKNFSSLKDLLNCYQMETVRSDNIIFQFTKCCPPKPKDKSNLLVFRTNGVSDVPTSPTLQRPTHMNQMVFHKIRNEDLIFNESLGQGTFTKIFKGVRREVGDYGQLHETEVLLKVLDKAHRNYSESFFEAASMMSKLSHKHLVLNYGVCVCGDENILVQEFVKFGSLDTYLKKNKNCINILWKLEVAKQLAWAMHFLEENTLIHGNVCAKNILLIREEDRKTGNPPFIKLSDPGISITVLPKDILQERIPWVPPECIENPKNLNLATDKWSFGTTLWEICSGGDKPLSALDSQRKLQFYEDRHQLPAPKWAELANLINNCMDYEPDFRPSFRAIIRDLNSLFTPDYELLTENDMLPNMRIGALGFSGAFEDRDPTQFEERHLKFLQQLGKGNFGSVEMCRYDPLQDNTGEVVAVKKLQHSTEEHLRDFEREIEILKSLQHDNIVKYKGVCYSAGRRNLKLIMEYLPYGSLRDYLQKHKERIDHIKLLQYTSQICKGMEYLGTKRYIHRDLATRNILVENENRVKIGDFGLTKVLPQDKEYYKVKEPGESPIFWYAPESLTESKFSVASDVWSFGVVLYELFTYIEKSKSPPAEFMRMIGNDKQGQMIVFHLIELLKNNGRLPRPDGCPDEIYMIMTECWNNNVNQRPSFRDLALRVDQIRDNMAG
Chain of EGFR (ErbB1) T790M L858R (P00533 25-1210 T790M/L858R): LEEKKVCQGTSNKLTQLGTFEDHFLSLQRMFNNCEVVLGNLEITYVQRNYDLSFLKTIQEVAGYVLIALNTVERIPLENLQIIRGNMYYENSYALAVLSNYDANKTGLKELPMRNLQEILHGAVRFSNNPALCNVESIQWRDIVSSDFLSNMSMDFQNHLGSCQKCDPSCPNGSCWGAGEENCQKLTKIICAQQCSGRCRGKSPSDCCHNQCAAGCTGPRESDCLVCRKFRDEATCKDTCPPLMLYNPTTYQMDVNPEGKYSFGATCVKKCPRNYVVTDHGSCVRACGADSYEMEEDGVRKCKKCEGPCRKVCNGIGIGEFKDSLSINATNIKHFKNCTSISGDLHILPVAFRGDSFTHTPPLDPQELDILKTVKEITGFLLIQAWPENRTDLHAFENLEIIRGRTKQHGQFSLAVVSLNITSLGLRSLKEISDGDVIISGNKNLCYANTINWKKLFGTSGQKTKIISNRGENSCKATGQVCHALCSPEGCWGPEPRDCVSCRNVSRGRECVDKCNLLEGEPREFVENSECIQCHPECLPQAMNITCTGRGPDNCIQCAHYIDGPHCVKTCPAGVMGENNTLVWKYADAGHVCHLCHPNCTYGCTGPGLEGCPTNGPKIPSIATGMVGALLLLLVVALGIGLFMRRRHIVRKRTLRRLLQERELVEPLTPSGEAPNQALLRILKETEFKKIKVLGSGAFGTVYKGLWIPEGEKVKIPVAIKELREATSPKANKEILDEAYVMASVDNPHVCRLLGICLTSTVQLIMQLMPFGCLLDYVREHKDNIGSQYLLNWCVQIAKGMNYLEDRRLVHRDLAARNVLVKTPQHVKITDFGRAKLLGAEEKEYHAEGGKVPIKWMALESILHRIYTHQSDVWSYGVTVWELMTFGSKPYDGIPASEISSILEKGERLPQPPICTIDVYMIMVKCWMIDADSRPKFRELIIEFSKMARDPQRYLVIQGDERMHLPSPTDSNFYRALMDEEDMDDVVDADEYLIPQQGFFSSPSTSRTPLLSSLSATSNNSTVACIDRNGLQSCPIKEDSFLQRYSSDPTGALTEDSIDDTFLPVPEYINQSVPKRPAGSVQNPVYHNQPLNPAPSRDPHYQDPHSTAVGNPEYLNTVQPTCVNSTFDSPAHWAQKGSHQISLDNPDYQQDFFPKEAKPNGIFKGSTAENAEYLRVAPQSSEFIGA
Protocol for H1299 cells: Inhibition of cell growth by compounds was measured using MTT assay (Mosmann, T., Journal of Immunological Methods, 1983, 65, 55-63). Tumor cell lines were purchased from ATCC (American Type Culture Collection, Manassas, Va.). All cell lines were maintained in RPMI 1640 (Hyclone) supplemented with 10% fetal bovine serum (FBS, Hyclone), glutamine (2 mM, Hyclone), and antibiotics (penicillin 100 U/mL and streptomycin 50 μg/mL) at 37° C. in a humidified atmosphere of 5% CO2 in air. Taxol (as a positive control. Sigma) and compounds were dissolved in DMSO (Sigma), and the final concentration of DMSO in the medium was 1%. Tumor cells were plated in 96-well plates at densities of about 4000 cells/well of a 96-well plate and allowed to adhere/grow for 24 h. They were then treated with various concentrations of drug for 72 h, 3-(4,5-Dimethylthiazol-2-yl)-2,5-diphenyltetrazolium bromide (MTT, Sigma) was used to determine the number of viable cells at the time of compound addition and the number of cells remaining after 72 h compound exposure. The number of cells remaining after 72 h was compared to the number of viable cells at the time of compound addition by measuring the absorbance at 570 nm, allowing for the calculation of growth inhibition.
(§4) All concentrations of compounds were tested in triplicate and controls were averaged over 4 wells. IC50 was calculated by plotting the concentration of compound vs the percentage of inhibition in treated wells using GraphPad Prism 5.
Protocol for HCC827 cells: Taxol (as a positive control. Sigma) and compounds were dissolved in DMSO (Sigma), and the final concentration of DMSO in the medium was 1%. Tumor cells were plated in 96-well plates at densities of about 4000 cells/well of a 96-well plate and allowed to adhere/grow for 24 h. They were then treated with various concentrations of drug for 72 h, 3-(4,5-Dimethylthiazol-2-yl)-2,5-diphenyltetrazolium bromide (MTT, Sigma) was used to determine the number of viable cells at the time of compound addition and the number of cells remaining after 72 h compound exposure. The number of cells remaining after 72 h was compared to the number of viable cells at the time of compound addition by measuring the absorbance at 570 nm, allowing for the calculation of growth inhibition.
as §4
The scale utilized in Tables 5 is as follows: +++ less than 100 nM; ++ between 100 nM and 500 nM; and + greater than 500 nM.

As to `CC(=O)Nc1cccc(-c2cccc3cnc(Nc4ccc(N5CCN(C)CC5)cc4)nc23)c1` [Example C022, N-(3-(2-((4-(4-methylpiperazin-1-yl)phenyl)amino)quinazolin-8-yl)phenyl)acetamide], at EGFR (ErbB1) T790M L858R, the inhibition at 1 µM is > 50%. Also, the inhibition at 0.041 µM on BTK, on JAK2 and at FGFR1 was > 50% throughout. The IC50 in the test with HCC827 cells is < 100 nM; with H1975 cells, > 500 nM.

On to `Fc1ccc(OCCN2CCOCC2)cc1-c1cccc2cnc(Nc3ccc(N4CCOCC4)cc3)nc12` [Example C023, 8-(2-fluoro-5-(2-morpholinoethoxy)phenyl)-N-(4-morpholinophenyl)quinazolin-2-amine], for which the inhibition at 1 µM at EGFR (ErbB1) and on EGFR (ErbB1) T790M L858R was < 50% throughout. For the same compound, the inhibition at 0.041 µM on BTK, on JAK2 and on FGFR1 was < 50% in each case. Besides, the IC50 with HCC827 cells and in the test with H1975 cells was > 500 nM throughout.

Regarding `Clc1ccccc1-c1cccc2cnc(Nc3ccc(N4CCNCC4)cc3)nc12` [Example C026, 8-(2-chlorophenyl)-N-(4-(piperazin-1-yl)phenyl)quinazolin-2-amine], the inhibition at 1 µM at EGFR (ErbB1) T790M L858R was > 50%. In addition, the results for the inhibition at 0.041 µM at BTK, at JAK2 and on FGFR1 were < 50%, > 50% and > 50%, respectively. For the same compound, the IC50 in the test on HCC827 cells and with H1975 cells was > 500 nM throughout.

Take `C=CC(=O)Nc1cccc(-c2cccc3cnc(Nc4ccc(N5CCN(C(C)=O)CC5)cc4)nc23)c1` [Example C032, N-(3-(2-((4-(4-acetylpiperazin-1-yl)phenyl)amino)quinazolin-8-yl)phenyl)acrylamide]: the inhibition at 1 µM on EGFR (ErbB1) is > 50%. Also, the IC50 at EGFR (ErbB1) T790M L858R is < 100 nM; with A431 cells, 100 to 500 nM; in the test with HCC827 cells, < 100 nM; with H1299 cells it was > 500 nM; in the test with H1975 cells, 100 to 500 nM. Moreover, the inhibition at 0.041 µM on BTK and at JAK2 was > 50% in each case.

`C=CC(=O)Nc1cccc(-c2c(C)ccc3cnc(Nc4ccc(N5CCOCC5)cc4)nc23)c1` [Example C033, N-(3-(7-methyl-2-((4-morpholinophenyl)amino)quinazolin-8-yl)phenyl)acrylamide]: the inhibition at 1 µM on EGFR (ErbB1) and on EGFR (ErbB1) T790M L858R was > 50% in each case. Moreover, the inhibition at 0.041 µM was > 50% on BTK and < 50% at JAK2. In addition, the IC50 in the test on HCC827 cells was < 100 nM; in the test with H1299 cells, > 500 nM; in the test on H1975 cells, 100 to 500 nM.

For `C=CC(=O)Nc1cccc(-c2cccc3cnc(Nc4ccc(N5CCN(C(C)=O)CC5)nc4)nc23)c1` [Example C036, N-(3-(2-((6-(4-acetylpiperazin-1-yl)pyridin-3-yl)amino)quinazolin-8-yl)phenyl)acrylamide], the inhibition at 0.041 µM on FGFR1 is < 50%. Moreover, the IC50 in the test on HCC827 cells was < 100 nM; in the test on H1299 cells, > 500 nM; with H1975 cells, > 500 nM.

With `C=CC(=O)Nc1cncc(-c2cccc3cnc(Nc4ccc(N5CCN(C)CC5)cc4)nc23)c1` [Example C040, N-(5-(2-((4-(4-methylpiperazin-1-yl)phenyl)amino)quinazolin-8-yl)pyridin-3-yl)acrylamide], the inhibition at 0.041 µM on EGFR (ErbB1) was > 50%; on BTK, > 50%; on JAK2 it was < 50%. Also, the IC50 at EGFR (ErbB1) was < 100 nM; at EGFR (ErbB1) T790M L858R it was < 100 nM; in the test on A431 cells it was 100 to 500 nM; in the test with HCC827 cells, < 100 nM; in the test with H1299 cells it was 100 to 500 nM; in the test with H1975 cells it was < 100 nM.

As for `C=CC(=O)Nc1cccc(-c2cccc3cnc(Nc4ccc(N5CCN(C)CC5)cc4)nc23)c1Cl` [Example C054, N-(2-chloro-3-(2-((4-(4-methylpiperazin-1-yl)phenyl)amino)quinazolin-8-yl)phenyl)acrylamide], the inhibition at 0.041 µM at EGFR (ErbB1), on BTK and on JAK2 was > 50% throughout. On EGFR (ErbB1) T790M L858R, the inhibition at 0.0137 µM is > 50%. In addition, the IC50 is < 100 nM at EGFR (ErbB1) T790M L858R, > 500 nM in the test on A431 cells and 100 to 500 nM in the test on H1975 cells.

With `C=CC(=O)Nc1cccc(-c2cccc3cnc(Nc4ccc(N5CCN(C)CC5)nc4OC)nc23)c1` [Example C055, N-(3-(2-((2-methoxy-6-(4-methylpiperazin-1-yl)pyridin-3-yl)amino)quinazolin-8-yl)phenyl)acrylamide], the inhibition at 0.041 µM on EGFR (ErbB1), on BTK and on JAK2 was < 50% each time. The inhibition at 0.0137 µM at EGFR (ErbB1) T790M L858R was > 50%. In addition, the IC50 with A431 cells and in the test with H1975 cells was 100 to 500 nM in each case.

`C=CC(=O)Nc1cccc(-c2cccc3cnc(Nc4ccc(N5CCN(C)CC5)c(C(N)=O)c4)nc23)c1` [Example C085, 5-((8-(3-acrylamidophenyl)quinazolin-2-yl)amino)-2-(4-methylpiperazin-1-yl)benzamide]: on EGFR (ErbB1), the inhibition at 0.041 µM is < 50%. Further, the IC50 at EGFR (ErbB1) T790M L858R is < 100 nM; at BTK, < 100 nM; with A431 cells, 100 to 500 nM; with H3255 cells, > 500 nM; with H1299 cells, > 500 nM; in the test with H1975 cells, < 100 nM.

For `C=CC(=O)Nc1cccc(-c2cccc3cnc(Nc4ccc(NC5CN(CCO)C5)cc4)nc23)c1` [Example C099, N-(3-(2-((4-((1-(2-hydroxyethyl)azetidin-3-yl)amino)phenyl)amino)quinazolin-8-yl)phenyl)acrylamide], the inhibition at 0.041 µM on EGFR (ErbB1) was > 50%. Further, the IC50 was < 100 nM on EGFR (ErbB1); < 100 nM on EGFR (ErbB1) T790M L858R; < 100 nM on BTK; 100 to 500 nM in the test on A431 cells; > 500 nM with H3255 cells; > 500 nM with H1299 cells. Besides, the IC50 in the test with H1975 cells is < 100 nM. For the same compound, the inhibition at 0.0137 µM at EGFR (ErbB1) T790M L858R was > 50%.
